Laboratory results as given in ChEMBL document CHEMBL3856211, “A critical review of both the synthesis approach and the receptor profile of the 8-chloro-1-(2',4'-dichlorophenyl)-N-piperidin-1-yl-1,4,5,6-tetrahydrobenzo[6,7]cyclohepta[1,2-c]pyrazole-3-carboxamide and analogue derivatives” (Eur J Med Chem, 2016).
Several values for one entry are separate records, joined by “and”; a condition that tells them apart may be missing. Equal entries are not always repeated. Activity calls are given as the source filed them. No cut-off for these calls is given here.

Columns and labels:
Cannabinoid receptor 2 = Cannabinoid receptor 2 (Homo sapiens, UniProt P34972); test: Displacement of [3H]-CP55,940 from human CB2 receptor transfected in CHO cell membranes after 60 mins by liquid scintillation spectrometry
[1] = Selectivity ratio of Ki for human CB2 receptor to Ki for CB1 receptor in mouse whole brain membranes; format: cell membranes
Cannabinoid receptor 1 [2] = target: Cannabinoid receptor 1 (Mus musculus, UniProt P47746); test: Displacement of [3H]-CP55,940 from CB1 receptor in mouse whole brain membranes after 60 mins by liquid scintillation spectrometry; format: cell membranes, Membrane
[3] = target: Cannabinoid receptor 1 (Mus musculus) (UniProt P47746); test: Intrinsic activity at CB1 receptor in mouse N1E-115 cells assessed as phosphorylation of ERK1/2 at 1 uM after 10 mins by Western blot method relative to control; format: cell-based
[4] = target: Cannabinoid receptor 1 (Mus musculus) (UniProt P47746); test: Antagonist activity at CB1 receptor in mouse N1E-115 cells assessed as inhibition of WIN55,212-2-induced phosphorylation of ERK1/2 by measuring phosphorylated ERK1/2 level at 1 uM preincubated for 5 mins followed by WIN55,212-2 addition measured after 10 mins by Western blot method; format: cell-based; set-up: scale not given: the % may be the effect or the level left
[5] = target: Cannabinoid receptor 1 (Mus musculus) (UniProt P47746); test: Intrinsic activity at CB1 receptor in mouse N1E-115 cells assessed as phosphorylation of ERK1/2 at 1 nM to 10 uM after 10 mins by Western blot method; format: cell-based
Cannabinoid receptor 1 [6] = target: Cannabinoid receptor 1 (Homo sapiens, UniProt P21554); test: Displacement of [3H]-CP55,940 from human CB1 receptor transfected in CHO cell membranes
Sequence of Cannabinoid receptor 1 (Homo sapiens, UniProt P21554) (P21554 whole entry): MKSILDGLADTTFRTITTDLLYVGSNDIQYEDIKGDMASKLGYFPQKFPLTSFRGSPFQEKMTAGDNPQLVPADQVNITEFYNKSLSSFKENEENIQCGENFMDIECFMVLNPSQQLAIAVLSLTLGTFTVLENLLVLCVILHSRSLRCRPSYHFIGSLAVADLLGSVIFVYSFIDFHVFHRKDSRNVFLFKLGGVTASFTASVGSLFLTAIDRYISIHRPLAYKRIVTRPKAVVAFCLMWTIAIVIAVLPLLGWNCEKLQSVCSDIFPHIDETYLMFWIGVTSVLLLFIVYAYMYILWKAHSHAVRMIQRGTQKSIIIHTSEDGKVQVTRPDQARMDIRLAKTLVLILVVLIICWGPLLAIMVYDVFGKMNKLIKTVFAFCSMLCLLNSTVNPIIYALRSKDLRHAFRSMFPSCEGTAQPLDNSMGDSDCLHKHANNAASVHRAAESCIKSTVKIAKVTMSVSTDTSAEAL

Sequence of Cannabinoid receptor 2 (P34972 whole entry): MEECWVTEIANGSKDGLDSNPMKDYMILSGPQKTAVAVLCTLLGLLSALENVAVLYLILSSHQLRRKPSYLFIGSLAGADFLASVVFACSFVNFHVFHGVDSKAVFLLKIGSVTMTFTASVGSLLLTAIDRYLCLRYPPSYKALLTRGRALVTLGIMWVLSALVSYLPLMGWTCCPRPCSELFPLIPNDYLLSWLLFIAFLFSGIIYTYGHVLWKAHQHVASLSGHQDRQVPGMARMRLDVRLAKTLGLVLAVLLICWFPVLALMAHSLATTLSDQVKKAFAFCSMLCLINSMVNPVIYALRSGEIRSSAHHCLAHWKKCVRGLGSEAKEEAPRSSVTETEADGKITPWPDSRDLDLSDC
Sequence of Cannabinoid receptor 1 (Mus musculus) (P47746 whole entry): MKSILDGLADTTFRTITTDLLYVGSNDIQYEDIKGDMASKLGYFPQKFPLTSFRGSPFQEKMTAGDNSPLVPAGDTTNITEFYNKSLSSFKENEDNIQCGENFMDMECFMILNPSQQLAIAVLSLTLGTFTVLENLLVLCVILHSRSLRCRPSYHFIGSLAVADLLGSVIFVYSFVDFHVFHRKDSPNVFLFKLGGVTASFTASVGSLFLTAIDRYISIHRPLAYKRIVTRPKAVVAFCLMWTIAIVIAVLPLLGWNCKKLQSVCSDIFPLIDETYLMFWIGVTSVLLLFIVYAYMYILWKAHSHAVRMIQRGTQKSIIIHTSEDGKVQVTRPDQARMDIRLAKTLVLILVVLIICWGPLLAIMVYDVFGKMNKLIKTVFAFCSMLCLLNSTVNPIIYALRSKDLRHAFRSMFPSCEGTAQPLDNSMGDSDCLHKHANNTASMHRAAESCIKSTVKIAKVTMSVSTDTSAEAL
Sequence of Cannabinoid receptor 1 (Mus musculus, UniProt P47746) (P47746 whole entry): as above

Cc1ccc(Cn2nc(C(=O)NCC3CCC4CC3C4(C)C)c3c2-c2cc(Cl)ccc2CCC3)cc1 (stereo unspecified)
Ki (Cannabinoid receptor 2): 51.1 nM
Ratio Ki [1]: 0.3
Ki (Cannabinoid receptor 1 [2]): 169 nM

CCCCCCC(C)(C)c1ccc([C@@H]2C[C@H](O)CC[C@H]2CCCO)c(O)c1 [CP-55940]
Ki (Cannabinoid receptor 1 [2]): 0.62 nM

O=C(NC1CCCCC1)c1nn(-c2ccc(Cl)cc2Cl)c2c1CCCc1cc(Cl)ccc1-2
Intrinsic activity [3]: 113%
Activity [4]: 117%
Ki (Cannabinoid receptor 2): 17.9 nM
Ratio Ki [1]: 1.75
Ki (Cannabinoid receptor 1 [2]): 10.2 nM

CC1(C)C2CCC(CNC(=O)c3nn(-c4ccc(Cl)cc4Cl)c4c3CCCc3cc(Cl)ccc3-4)C1C2 (stereo unspecified)
Activity [5]: Active
Ki (Cannabinoid receptor 2): 19.5 nM
Ratio Ki [1]: 5.42
Ki (Cannabinoid receptor 1 [2]): 3.6 nM

Cc1c(C(=O)NN2CCCCC2)nn(-c2ccc(Cl)cc2Cl)c1-c1ccc(Cl)cc1
Intrinsic activity [3]: 110%
Activity [4]: 108%

OC(CC1CCCCC1)c1nn(-c2ccc(Cl)cc2Cl)c2c1CCCc1cc(Cl)ccc1-2 (stereo unspecified)
Ki (Cannabinoid receptor 2): 24 nM
Ratio Ki [1]: 0.16
Ki (Cannabinoid receptor 1 [2]): 154 nM

O=C(NN1CCCCCC1)c1nn(-c2ccc(Cl)cc2Cl)c2c1CCCc1cc(Cl)ccc1-2
Intrinsic activity [3]: 107%
Activity [4]: 102%
Ki (Cannabinoid receptor 2): 28.1 nM
Ratio Ki [1]: 6.24
Ki (Cannabinoid receptor 1 [2]): 4.5 nM

O=C(NCC1CCCCC1)c1nn(-c2ccc(Cl)cc2Cl)c2c1CCCc1cc(Cl)ccc1-2
Intrinsic activity [3]: 100%
Activity [4]: 109%
Ki (Cannabinoid receptor 2): 31.8 nM
Ratio Ki [1]: 1.64
Ki (Cannabinoid receptor 1 [2]): 19.4 nM

O=C(NN1CCCC1)c1nn(-c2ccc(Cl)cc2Cl)c2c1CCCc1cc(Cl)ccc1-2
Intrinsic activity [3]: 95%
Activity [4]: 103%
Ki (Cannabinoid receptor 2): 182 nM
Ratio Ki [1]: 10.6
Ki (Cannabinoid receptor 1 [2]): 17.2 nM

O=C(NN1CCCCC1)c1nn(-c2ccc(Cl)cc2Cl)c2c1CCCc1cc(Cl)ccc1-2
Intrinsic activity [3]: 111%
Activity [4]: 115%
Ki (Cannabinoid receptor 2): 55.7 nM and 85.2 nM
Ratio Ki [1]: 13.3
Ki (Cannabinoid receptor 1 [6]): 126 nM
Ki (Cannabinoid receptor 1 [2]): 8.18 nM and 4.2 nM

O=C(CC1CCCCC1)c1nn(-c2ccc(Cl)cc2Cl)c2c1CCCc1cc(Cl)ccc1-2
Intrinsic activity [3]: 115%
Activity [4]: 105%
Ki (Cannabinoid receptor 2): 325 nM
Ratio Ki [1]: 38.2
Ki (Cannabinoid receptor 1 [2]): 8.5 nM

O=C(NCC12CC3CC(CC(C3)C1)C2)c1nn(-c2ccc(Cl)cc2Cl)c2c1CCCc1cc(Cl)ccc1-2
Intrinsic activity [3]: 98%
Activity [4]: 108%
Ki (Cannabinoid receptor 2): 13.3 nM
Ratio Ki [1]: 0.69
Ki (Cannabinoid receptor 1 [2]): 19.1 nM

CC1(C)C2CCC(CNC(=O)c3nn(-c4ccc(Cl)cc4Cl)c4c3CCCc3ccc(Cl)cc3-4)C1C2 (stereo unspecified)
Activity [5]: Active
Ki (Cannabinoid receptor 2): 13.6 nM
Ratio Ki [1]: 0.79
Ki (Cannabinoid receptor 1 [2]): 17.3 nM

Cc1ccc(Cn2nc(C(=O)NCC3CCC4CC3C4(C)C)c3c2-c2ccc(Cl)cc2CCC3)cc1 (stereo unspecified)
Ki (Cannabinoid receptor 2): 9.5 nM
Ratio Ki [1]: 0.03
Ki (Cannabinoid receptor 1 [2]): 313 nM

O=C(NC[C@H]1CCCO1)c1nn(-c2ccc(Cl)cc2Cl)c2c1CCCc1cc(Cl)ccc1-2
Intrinsic activity [3]: 113%
Activity [4]: 118%
Ki (Cannabinoid receptor 2): 52.1 nM
Ratio Ki [1]: 2.1
Ki (Cannabinoid receptor 1 [2]): 24.8 nM
